Data published in paper PMC13303085, “Succinate dehydrogenase loss suppresses pyrimidine biosynthesis via succinate-mediated inhibition of aspartate transcarbamylase” (Nature metabolism, 2026).

Experiments:
[1] = biological target: T1, aspartate transcarbamylase (ATCase) domain of CAD (Homo sapiens, UniProt P27708); experiment: initial-rate kinetics of purified MBP-ATCase, aspartate titration in excess CP; assay type: biochemical; parameters: residues 1,915–2,225 of human CAD, N-terminal 6×His-tagged MBP fusion (MBP-ATCase)
T1 sequence (P27708 1915-2225): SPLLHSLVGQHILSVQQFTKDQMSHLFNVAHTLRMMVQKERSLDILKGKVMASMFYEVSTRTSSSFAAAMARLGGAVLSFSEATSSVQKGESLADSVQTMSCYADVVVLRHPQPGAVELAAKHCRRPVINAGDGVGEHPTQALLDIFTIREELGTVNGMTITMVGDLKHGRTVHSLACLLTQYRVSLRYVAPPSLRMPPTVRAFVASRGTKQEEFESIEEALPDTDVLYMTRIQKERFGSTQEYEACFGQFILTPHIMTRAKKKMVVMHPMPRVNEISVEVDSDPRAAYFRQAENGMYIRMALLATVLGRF

[2] = biological target: T1, aspartate transcarbamylase (ATCase) domain of CAD; experiment: colorimetric carbamoyl-aspartate formation assay with purified MBP-ATCase, CP titration at […] aspartate; assay type: biochemical; parameters: residues 1,915–2,225 of human CAD, N-terminal 6×His-tagged MBP fusion (MBP-ATCase)
[3] = biological target: T1, aspartate transcarbamylase (ATCase) domain of CAD; experiment: initial-rate kinetics of purified MBP-ATCase, CP titration in excess aspartate (Michaelis-Menten); assay type: biochemical; parameters: residues 1,915–2,225 of human CAD, N-terminal 6×His-tagged MBP fusion (MBP-ATCase)
Source text: initial-rate kinetics of purified MBP-ATCase, CP titration in excess aspartate (Michaelis-Menten) on aspartate transcarbamylase (ATCase) domain of CAD | relative initial enzymatic rates of MBP-ATCase in excess aspartate and a titration of CP.

[4] = biological target: T1, aspartate transcarbamylase (ATCase) domain of CAD; experiment: biochemical
[5] = biological target: the molecule itself; experiment: SEC; affinity-purified MBP-ATCase on Superdex 200 16/600 in 20 mM Tris-HCl pH 7.2, 100 mM NaCl, 2% glycerol, 0.2 mM TCEP; trimer

N[C@@H](CC(=O)O)C(=O)O [aspartate]
initial-rate kinetics of purified MBP-ATCase, aspartate titration in excess CP [1]: we measured initial enzymatic rates of MBP-ATCase in excess CP, a titration of aspartate, and three concentrations of succinate

O=C(O)C[C@H](NC(=O)CP(=O)(O)O)C(=O)O [PALA]
colorimetric carbamoyl-aspartate formation assay with purified MBP-ATCase, CP ti [2]: initial rates were dose-dependently decreased with nanomolar doses of the classical ATCase inhibitor, PALA (N-phosphonacetyl-L-aspartate)

NC(=O)OP(=O)(O)O [carbamoyl phosphate]
initial-rate kinetics of purified MBP-ATCase, CP titration in excess aspartate [3]: relative initial enzymatic rates of MBP-ATCase in excess aspartate and a titration of CP. This showed saturation kinetics

O=C(O)CCC(=O)O [succinate]
IC50 [4]: 1350 µM

B1: ATCase domain of human CAD fused N-terminally to a 6×His-tagged maltose binding protein (MBP-ATCase) (domain or fragment, UniProt P27708 1915-2225, looked up)
chain: SPLLHSLVGQHILSVQQFTKDQMSHLFNVAHTLRMMVQKERSLDILKGKVMASMFYEVSTRTSSSFAAAMARLGGAVLSFSEATSSVQKGESLADSVQTMSCYADVVVLRHPQPGAVELAAKHCRRPVINAGDGVGEHPTQALLDIFTIREELGTVNGMTITMVGDLKHGRTVHSLACLLTQYRVSLRYVAPPSLRMPPTVRAFVASRGTKQEEFESIEEALPDTDVLYMTRIQKERFGSTQEYEACFGQFILTPHIMTRAKKKMVVMHPMPRVNEISVEVDSDPRAAYFRQAENGMYIRMALLATVLGRF
notes: Order of the construct: 6×His, SSG linker, MBP, two SSG linkers, TEV protease site, GS linker, CAD 1915-2225; in pET-28a(+); also called 6×His-tagged MBP-ATCase; human ATCase; source: E. coli BL21, autoinduction medium, purified (HisPur cobalt resin, SEC on Superdex 200); not shown: His6, N-terminal, kept; MBP, N-terminal, kept
stoichiometry N [5]: 3
